# Data from article PMC9133015 (Nature Communications, 2022).
# Where “and” joins values, the source holds several entries; their conditions need not be identical. Identical values can stand only once. Like-named read-outs stand apart in the source and are kept apart here.
# How the values were obtained:
# Experiment in all cases: Kinase inhibitor specificity profiling (Reaction Biology Corporation)
# Assay type in all cases: biochemical
# Design in all cases: % Enzyme Activity (relative to DMSO controls): concentration or dose not given beside the values
# [1] = target: T1, panel of 370 protein kinases (Homo sapiens, UniProt P11802); settings: 2 h, read-out: % Enzyme Activity (relative to DMSO controls)
# T1 construct: purchased Reaction Biology Corporation (assay service)
# T1 sequence (P11802 whole entry): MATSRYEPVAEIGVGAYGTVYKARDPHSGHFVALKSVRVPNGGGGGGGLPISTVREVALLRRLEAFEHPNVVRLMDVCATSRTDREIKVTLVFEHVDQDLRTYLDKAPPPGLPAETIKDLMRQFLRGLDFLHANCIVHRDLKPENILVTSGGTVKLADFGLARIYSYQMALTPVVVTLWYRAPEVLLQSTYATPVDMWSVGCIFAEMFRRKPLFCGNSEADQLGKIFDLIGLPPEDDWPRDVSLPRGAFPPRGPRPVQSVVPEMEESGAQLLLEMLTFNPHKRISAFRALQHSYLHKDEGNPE
# [2] = target: T2, panel of 370 protein kinases (Homo sapiens, UniProt Q16513); settings: 2 h, kinase PKN2/PRK2; read-out: % Enzyme Activity (relative to DMSO controls)
# T2 construct: purchased Reaction Biology Corporation (assay service)
# [3] = target: T3, panel of 370 protein kinases (Homo sapiens, UniProt P06493); settings: 2 h, read-out: % Enzyme Activity (relative to DMSO controls)
# T3 construct: purchased Reaction Biology Corporation (assay service)
# T3 sequence (P06493 whole entry): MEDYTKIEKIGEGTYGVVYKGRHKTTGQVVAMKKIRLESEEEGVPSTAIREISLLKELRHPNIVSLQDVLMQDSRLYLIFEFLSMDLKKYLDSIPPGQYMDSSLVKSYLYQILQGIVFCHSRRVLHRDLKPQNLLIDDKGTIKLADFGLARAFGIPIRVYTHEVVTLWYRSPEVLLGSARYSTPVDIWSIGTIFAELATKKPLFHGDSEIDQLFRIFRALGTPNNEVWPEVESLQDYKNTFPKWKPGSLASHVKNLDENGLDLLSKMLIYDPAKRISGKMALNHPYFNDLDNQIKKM
# [4] = target: T4, panel of 370 protein kinases (Homo sapiens, UniProt P51817); settings: 2 h, kinase PRKX; read-out: % Enzyme Activity (relative to DMSO controls)
# T4 construct: purchased Reaction Biology Corporation (assay service)
# [5] = target: T5, panel of 370 protein kinases (Homo sapiens, UniProt O00444); settings: 2 h, kinase PLK4/SAK; read-out: % Enzyme Activity (relative to DMSO controls)
# T5 construct: purchased Reaction Biology Corporation (assay service)
# [6] = target: T6, panel of 370 protein kinases (Homo sapiens, UniProt P49137); settings: 2 h, kinase MAPKAPK2; read-out: % Enzyme Activity (relative to DMSO controls)
# T6 construct: purchased Reaction Biology Corporation (assay service)
# [7] = target: T7, panel of 370 protein kinases (Homo sapiens, UniProt Q9HBY8); settings: 2 h, kinase SGK2; read-out: % Enzyme Activity (relative to DMSO controls)
# T7 construct: purchased Reaction Biology Corporation (assay service)
# T7 sequence (Q9HBY8 whole entry): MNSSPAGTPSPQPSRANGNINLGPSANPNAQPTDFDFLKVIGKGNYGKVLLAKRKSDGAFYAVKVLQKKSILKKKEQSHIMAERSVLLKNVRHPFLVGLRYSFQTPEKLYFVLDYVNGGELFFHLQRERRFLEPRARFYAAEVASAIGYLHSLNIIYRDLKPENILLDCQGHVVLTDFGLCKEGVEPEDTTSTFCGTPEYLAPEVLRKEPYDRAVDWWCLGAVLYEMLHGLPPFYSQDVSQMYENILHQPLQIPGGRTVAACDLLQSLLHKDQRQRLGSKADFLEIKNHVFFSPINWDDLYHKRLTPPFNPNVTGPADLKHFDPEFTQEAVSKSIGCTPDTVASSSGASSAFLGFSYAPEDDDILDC
# [8] = target: T8, panel of 370 protein kinases (Homo sapiens, UniProt P20794); settings: 2 h, kinase MAK; read-out: % Enzyme Activity (relative to DMSO controls)
# T8 construct: purchased Reaction Biology Corporation (assay service)
# [9] = target: T9, panel of 370 protein kinases (Homo sapiens, UniProt P16591); settings: 2 h, kinase FER; read-out: % Enzyme Activity (relative to DMSO controls)
# T9 construct: purchased Reaction Biology Corporation (assay service)
# T9 sequence (P16591 whole entry): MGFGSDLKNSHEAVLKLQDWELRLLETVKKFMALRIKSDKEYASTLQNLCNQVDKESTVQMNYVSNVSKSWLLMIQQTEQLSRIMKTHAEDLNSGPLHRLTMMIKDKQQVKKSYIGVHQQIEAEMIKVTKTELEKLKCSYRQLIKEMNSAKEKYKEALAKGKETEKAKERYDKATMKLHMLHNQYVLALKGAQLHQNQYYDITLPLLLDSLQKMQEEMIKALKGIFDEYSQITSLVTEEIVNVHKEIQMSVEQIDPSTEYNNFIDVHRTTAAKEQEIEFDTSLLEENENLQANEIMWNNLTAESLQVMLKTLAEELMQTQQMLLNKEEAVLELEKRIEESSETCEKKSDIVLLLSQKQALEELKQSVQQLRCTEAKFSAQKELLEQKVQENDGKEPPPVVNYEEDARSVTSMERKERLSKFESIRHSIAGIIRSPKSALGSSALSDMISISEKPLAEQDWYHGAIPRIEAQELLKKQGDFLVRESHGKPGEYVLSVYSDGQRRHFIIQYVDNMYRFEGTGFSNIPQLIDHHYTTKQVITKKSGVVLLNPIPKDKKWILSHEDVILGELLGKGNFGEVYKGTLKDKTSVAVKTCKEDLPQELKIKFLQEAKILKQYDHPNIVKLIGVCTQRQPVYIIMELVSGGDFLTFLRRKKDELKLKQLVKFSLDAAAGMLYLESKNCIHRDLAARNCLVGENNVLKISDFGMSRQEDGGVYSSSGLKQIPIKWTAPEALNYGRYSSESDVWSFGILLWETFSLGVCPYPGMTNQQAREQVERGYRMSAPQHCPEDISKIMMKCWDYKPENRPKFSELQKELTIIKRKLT
# [10] = target: T10, panel of 370 protein kinases (Homo sapiens, UniProt Q9UK32); settings: kinase RSK4
# T10 construct: purchased Reaction Biology Corporation (assay service)
# T10 sequence (Q9UK32 whole entry): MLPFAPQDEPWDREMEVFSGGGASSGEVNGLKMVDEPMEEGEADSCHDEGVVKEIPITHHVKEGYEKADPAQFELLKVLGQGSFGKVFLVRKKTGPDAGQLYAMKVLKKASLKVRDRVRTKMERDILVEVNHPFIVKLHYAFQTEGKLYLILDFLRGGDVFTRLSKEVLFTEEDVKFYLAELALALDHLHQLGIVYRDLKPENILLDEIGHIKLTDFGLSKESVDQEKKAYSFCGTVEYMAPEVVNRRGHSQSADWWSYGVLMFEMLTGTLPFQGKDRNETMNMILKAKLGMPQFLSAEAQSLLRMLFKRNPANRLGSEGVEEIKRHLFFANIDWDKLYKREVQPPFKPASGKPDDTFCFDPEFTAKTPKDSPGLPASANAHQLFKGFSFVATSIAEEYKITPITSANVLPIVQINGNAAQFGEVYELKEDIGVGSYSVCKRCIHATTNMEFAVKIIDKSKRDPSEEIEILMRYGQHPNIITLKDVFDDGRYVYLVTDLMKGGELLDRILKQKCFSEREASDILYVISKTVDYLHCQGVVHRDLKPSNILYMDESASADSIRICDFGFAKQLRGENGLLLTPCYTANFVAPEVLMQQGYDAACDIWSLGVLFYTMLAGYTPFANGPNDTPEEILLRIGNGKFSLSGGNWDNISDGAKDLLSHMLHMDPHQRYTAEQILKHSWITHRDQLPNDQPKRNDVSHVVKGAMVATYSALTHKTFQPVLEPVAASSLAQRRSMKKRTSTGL
# [11] = target: T11, panel of 370 protein kinases (Homo sapiens, UniProt Q13164); settings: 2 h, kinase ERK5/MAPK7; read-out: % Enzyme Activity (relative to DMSO controls)
# T11 construct: purchased Reaction Biology Corporation (assay service)
# [12] = target: T12, panel of 370 protein kinases (Homo sapiens, UniProt Q8NE63); settings: 2 h, kinase HIPK4; read-out: % Enzyme Activity (relative to DMSO controls)
# T12 construct: purchased Reaction Biology Corporation (assay service)
# [13] = target: T13, panel of 370 protein kinases (Homo sapiens, UniProt P11309); settings: 2 h, kinase PIM1; read-out: % Enzyme Activity (relative to DMSO controls)
# T13 construct: purchased Reaction Biology Corporation (assay service)
# T13 sequence (P11309 whole entry): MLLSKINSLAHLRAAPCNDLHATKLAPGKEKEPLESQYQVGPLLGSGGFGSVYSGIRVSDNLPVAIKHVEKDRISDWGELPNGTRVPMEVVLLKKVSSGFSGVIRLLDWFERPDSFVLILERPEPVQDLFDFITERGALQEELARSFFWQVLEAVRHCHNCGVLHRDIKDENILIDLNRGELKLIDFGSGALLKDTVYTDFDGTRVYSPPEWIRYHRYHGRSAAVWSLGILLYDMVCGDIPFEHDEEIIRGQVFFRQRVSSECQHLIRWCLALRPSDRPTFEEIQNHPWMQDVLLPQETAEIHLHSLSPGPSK
# [14] = target: T14, panel of 370 protein kinases (Homo sapiens, UniProt Q00535); settings: 2 h, read-out: % Enzyme Activity (relative to DMSO controls)
# T14 construct: purchased Reaction Biology Corporation (assay service)
# T14 sequence (Q00535 whole entry): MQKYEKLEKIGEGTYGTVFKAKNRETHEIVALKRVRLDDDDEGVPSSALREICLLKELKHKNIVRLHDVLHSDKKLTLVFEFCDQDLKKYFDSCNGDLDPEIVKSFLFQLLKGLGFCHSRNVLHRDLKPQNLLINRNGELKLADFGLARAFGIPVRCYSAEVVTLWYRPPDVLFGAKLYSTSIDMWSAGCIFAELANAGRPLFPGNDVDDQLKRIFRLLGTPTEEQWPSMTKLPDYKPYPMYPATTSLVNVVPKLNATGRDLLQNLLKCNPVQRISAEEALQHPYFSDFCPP
# [15] = target: T15, panel of 370 protein kinases (Homo sapiens, UniProt P53667); settings: 2 h, kinase LIMK1; read-out: % Enzyme Activity (relative to DMSO controls)
# T15 construct: purchased Reaction Biology Corporation (assay service)
# [16] = target: T16, panel of 370 protein kinases (Homo sapiens, UniProt P25098); settings: 2 h, kinase GRK2; read-out: % Enzyme Activity (relative to DMSO controls)
# T16 construct: purchased Reaction Biology Corporation (assay service)
# [17] = target: T17, panel of 370 protein kinases (Homo sapiens, UniProt P53779); settings: kinase JNK3
# T17 construct: purchased Reaction Biology Corporation (assay service)
# T17 sequence (P53779 whole entry): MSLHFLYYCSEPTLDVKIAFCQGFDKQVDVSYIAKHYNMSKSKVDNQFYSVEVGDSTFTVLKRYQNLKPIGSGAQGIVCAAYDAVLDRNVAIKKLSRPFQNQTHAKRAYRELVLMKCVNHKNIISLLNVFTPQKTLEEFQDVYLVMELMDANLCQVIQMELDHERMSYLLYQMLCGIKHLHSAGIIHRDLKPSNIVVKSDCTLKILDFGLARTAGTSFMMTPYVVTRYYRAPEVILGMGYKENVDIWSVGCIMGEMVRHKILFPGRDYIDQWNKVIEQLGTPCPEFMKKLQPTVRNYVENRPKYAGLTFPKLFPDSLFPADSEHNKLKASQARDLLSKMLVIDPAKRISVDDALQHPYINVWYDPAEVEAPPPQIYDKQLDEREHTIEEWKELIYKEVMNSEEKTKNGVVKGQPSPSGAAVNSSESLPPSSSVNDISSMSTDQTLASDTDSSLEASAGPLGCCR
# [18] = target: T18, panel of 370 protein kinases (Homo sapiens, UniProt Q00534); settings: 2 h, read-out: % Enzyme Activity (relative to DMSO controls)
# T18 construct: purchased Reaction Biology Corporation (assay service)
# T18 sequence (Q00534 whole entry): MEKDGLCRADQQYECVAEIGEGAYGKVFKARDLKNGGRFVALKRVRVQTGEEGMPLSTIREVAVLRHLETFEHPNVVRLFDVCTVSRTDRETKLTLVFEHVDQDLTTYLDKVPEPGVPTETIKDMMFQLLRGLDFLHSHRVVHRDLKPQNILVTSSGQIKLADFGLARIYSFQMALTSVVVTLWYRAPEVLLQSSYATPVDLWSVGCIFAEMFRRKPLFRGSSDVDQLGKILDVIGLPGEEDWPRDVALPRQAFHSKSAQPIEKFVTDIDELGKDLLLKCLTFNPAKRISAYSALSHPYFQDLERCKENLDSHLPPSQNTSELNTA
# [19] = target: T19, panel of 370 protein kinases (Homo sapiens, UniProt Q9NQU5); settings: 2 h, kinase PAK6; read-out: % Enzyme Activity (relative to DMSO controls)
# T19 construct: purchased Reaction Biology Corporation (assay service)
# [20] = target: T20, panel of 370 protein kinases (Homo sapiens, UniProt Q16832); settings: 2 h, kinase DDR2; read-out: % Enzyme Activity (relative to DMSO controls)
# T20 construct: purchased Reaction Biology Corporation (assay service)
# T20 sequence (Q16832 22-855): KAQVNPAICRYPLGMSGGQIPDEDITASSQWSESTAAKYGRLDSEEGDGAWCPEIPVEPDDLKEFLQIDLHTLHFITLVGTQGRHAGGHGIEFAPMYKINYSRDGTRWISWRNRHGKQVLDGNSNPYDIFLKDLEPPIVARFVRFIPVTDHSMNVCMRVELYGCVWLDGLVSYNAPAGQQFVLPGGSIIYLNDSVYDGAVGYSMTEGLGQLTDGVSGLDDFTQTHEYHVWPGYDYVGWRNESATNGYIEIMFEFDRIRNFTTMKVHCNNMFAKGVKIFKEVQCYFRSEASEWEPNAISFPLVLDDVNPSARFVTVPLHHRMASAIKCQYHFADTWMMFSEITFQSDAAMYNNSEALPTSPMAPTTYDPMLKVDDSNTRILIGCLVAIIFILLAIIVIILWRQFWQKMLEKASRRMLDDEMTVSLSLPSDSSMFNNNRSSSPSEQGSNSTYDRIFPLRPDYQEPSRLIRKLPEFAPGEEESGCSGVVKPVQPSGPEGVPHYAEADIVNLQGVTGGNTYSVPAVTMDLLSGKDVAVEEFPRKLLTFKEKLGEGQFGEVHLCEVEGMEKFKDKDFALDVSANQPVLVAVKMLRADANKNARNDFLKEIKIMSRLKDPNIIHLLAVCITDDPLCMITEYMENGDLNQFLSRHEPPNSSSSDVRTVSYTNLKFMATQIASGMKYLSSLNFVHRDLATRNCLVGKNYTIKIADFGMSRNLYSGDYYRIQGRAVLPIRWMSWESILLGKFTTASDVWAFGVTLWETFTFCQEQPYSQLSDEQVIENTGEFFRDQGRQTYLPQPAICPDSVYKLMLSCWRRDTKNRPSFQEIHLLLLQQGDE
# [21] = target: T21, panel of 370 protein kinases (Homo sapiens, UniProt O14965); settings: 2 h, kinase Aurora A; read-out: % Enzyme Activity (relative to DMSO controls)
# T21 construct: purchased Reaction Biology Corporation (assay service)
smiles,measurement,setting,value
CCN1CCN(C(=O)c2ccc(Nc3ncc(F)c(-c4ccc5nc(N(C)C)sc5c4)n3)nc2)CC1 [YK-2-69],remaining activity at 1 µM,[1]; kinase CDK4/cyclin D1,6.13%
same,remaining activity at 1 µM,[1]; kinase CDK4/cyclin D3,11.2%
same,remaining activity at 1 µM,[2],88.4%
same,remaining activity at 1 µM,[3]; kinase CDK1/cyclin A,116%
same,remaining activity at 1 µM,[3]; kinase CDK1/cyclin B,119%
same,remaining activity at 1 µM,[3]; kinase CDK1/cyclin E,103%
same,remaining activity at 1 µM,[4],95.1%
same,remaining activity at 1 µM,[5],72.6%
same,remaining activity at 1 µM,[6],83.2%
same,remaining activity at 1 µM,[7],97.5%
same,remaining activity at 1 µM,[8],71.7%
same,remaining activity at 1 µM,[9],106%
same,% Enzyme Activity (relative to DMSO controls),[10],87.21% and 86.27%
same,remaining activity at 1 µM,[11],104%
same,remaining activity at 1 µM,[12],56.5%
same,remaining activity at 1 µM,[13],77%
same,remaining activity at 1 µM,[14]; kinase CDK5/P25,92.2%
same,remaining activity at 1 µM,[14]; kinase CDK5/p35,90%
same,remaining activity at 1 µM,[15],95.7%
same,remaining activity at 1 µM,[16],112%
same,% Enzyme Activity (relative to DMSO controls),[17],84.96% and 83.74%
same,remaining activity at 1 µM,[18]; kinase CDK6/cyclin D1,8.21%
same,remaining activity at 1 µM,[18]; kinase CDK6/cyclin D3,71.9%
same,remaining activity at 1 µM,[19],105%
same,remaining activity at 1 µM,[20],103%
same,remaining activity at 1 µM,[21],80.6%
